Measured values taken from patent US20060205826A1, “Method of using carotenoids in the prevention of cognitive decline and for other neuroprotection functions” (priority 2005, published 2006).
“Also recorded” adds a separate entry of the source.

Columns and labels:
Assay type in all cases: in vivo
alloxan diabetic mice = assay: Morris water maze (spatial learning and memory) in diabetic mice
Experimental: Male albino mice were used throughout the study, housed in a environmentally regulated room on a dark-light cycle of 12 hours with free access to food and water. Principles of laboratory animal care (NIH publication no. 85-23, revised 1985) were followed, as well as specific Spanish regulations. Animals were made diabetic with a single subcutaneous injection of 200 mg alloxan/kg body weight (66 mg/ml) in 0.1 M citrate buffer, pH 4.5, at day 0 of the experiment. Control mice were injected with the same volume of vehicle also at day 0 of the experiment. Mice were identified as diabetic on the basis of blood glucose levels (higher than 16 mM at least 4 days after alloxan treatment). Animals were divided into subgroups as required by the experiment (control, control+lutein, diabetic, diabetic+lutein, diabetic+insulin, diabetic+insulin+lutein). Lutein was administered daily at a dose of 0.2 mg/kg p.o since day 4 after alloxan or citrate buffer injection until the end of the experiment. […] Glycated hemoglobin was determined in blood samples obtained by heart puncture immediately before killing the animals. […] We measured the duration from the time the mouse was dropped into the maze to the time the mouse climbed onto the platform (latency time). The latency was recorded manually using a stopwatch. […] The percentage of time spent in each of the pool quadrants was also recorded.

hippocampal stem cells = assay: Hippocampal neurogenesis (BrdU immunostaining, cell counting) in diabetic mice; conditions: two weeks after the induction of diabetes, preliminary data
Text: All animals were killed with a barbiturate overdose; each group had n>8. After intracardial perfusion with 4% paraformaldehyde, brains were cut into 40-μm-thick sections (200 μm, 1 every sixth section, used for electron microscopy analysis) with a vibratome (Leica VT100M).
Sections were immersed free-floating in 0.1 M phosphate buffer plus 0.05 % sodium azide. Twenty-four-well plates were used to keep the sections separate and preserve the order of the series. Sections that were 40 μm thick were used for cell counting. Incubations were performed in 0.1 M phosphate buffer with 0.2% Triton X-100 and 10% normal goat serum. Sections were blocked by incubating for 30 min in a solution of 3% hydrogen peroxide for diaminobenzidine (Sigma) staining. BrdU immunohistochemistry was preceded with DNA denaturation of 25 min of incubation in 2 M HCl at 37° C. The primary antibodies used were 1:200 mouse anti-BrdU (Dako). […]
Cell Counting. BrdU-positive cells were counted in sections spaced 400 μm apart by using a Nikon Eclipse E200 with a Nikon 40X Plan objective (0.65 numerical aperture) throughout the granule cell layer. […] Data were expressed as total, for the whole structure, and also subanalyzed in three regions: anterior, middle, and posterior.

NF-κB = NF-κB activity (TransAm Kit) in retina and hippocampus of diabetic mice; conditions: 15 days post alloxan, lutein treatment before and after diabetes induction
Experimental: Male albino mice were used throughout the study, housed in a environmentally regulated room on a dark-light cycle of 12 hours with free access to food and water. Principles of laboratory animal care (NIH publication no. 85-23, revised 1985) were followed, as well as specific Spanish regulations. Animals were made diabetic with a single subcutaneous injection of 200 mg alloxan/kg body weight (66 mg/ml) in 0.1 M citrate buffer, pH 4.5, at day 0 of the experiment. Control mice were injected with the same volume of vehicle also at day 0 of the experiment. Mice were identified as diabetic on the basis of blood glucose levels (higher than 16 mM at least 4 days after alloxan treatment). Animals were divided into subgroups as required by the experiment (control, control+lutein, diabetic, diabetic+lutein, diabetic+insulin, diabetic+insulin+lutein). […] Insulin treated animals were injected daily with 500 mU/g body weight since day 4 until the end of the experiment. Mice were killed by cervical dislocation on day 14, and hippocampus and retina were removed and homogenized in pre-chilled 0.2 M potassium phosphate buffer, pH 7.0. […] Glycated hemoglobin was determined in blood samples obtained by heart puncture immediately before killing the animals. NF-κB activity was determined with TransAm Kit (Active Motif) that combines an ELISA test with an specific assay for transcription factors. […]

CC1=C[C@H](O)CC(C)(C)[C@H]1/C=C/C(C)=C/C=C/C(C)=C/C=C/C=C(C)/C=C/C=C(C)/C=C/C1=C(C)C[C@@H](O)CC1(C)C [Lutein]
escape latencies in the Morris water maze (alloxan diabetic mice): diminished
proliferation of hippocampal stem cells (hippocampal stem cells): able to prevent the impairment in proliferation; also recorded: able to restore this alteration
NF-κB expression in hippocampus (NF-κB): decreased
NF-κB expression in retina (NF-κB): decreased
